Test results taken from US12564193B2, “Isoxazoline-substituted benzamide derivative, and preparation method therefor and use thereof” (SHANDONG UNITED PESTICIDE INDUSTRY CO., LTD., priority 2020, dated 2026).
Where two headings read alike, the source gives them in different places.

Key:
Type in all cases: in vivo
[1] = system: Frankliniella occidentalis; assay: Insecticidal activity, spray on pre-infested radish plants: Frankliniella occidentalis; conditions: Frankliniella occidentalis, 144 h, read-out: fatality rate on Frankliniella occidentalis
How it was run: (§1)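 Compounds were dissolved in a suitable solvent such as acetone, methanol or DMSO and sprayed onto 12-15 day old radish plants pre-infested with 30-40 pests by the leaf-cutting method. After drying for 1 hour under mesh, plants were held 6 days at 25° C and 70% relative humidity before mortality was scored visually.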

Plutella xylostella = assay: Insecticidal activity, spray on pre-infested radish plants: Plutella xylostella; conditions: Plutella xylostella, 144 h, read-out: fatality rate on Plutella xylostella
How it was run: as §1

Pieris rapae = assay: Insecticidal activity, spray on pre-infested radish plants: Pieris rapae; conditions: 144 h, read-out: fatality rate on Pieris rapae
How it was run: (§2)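 Radish plants (12-15 days), 30-40 pests/plant via leaf cutting, soil sand-covered; spray compound in acetone/methanol/DMSO; dry 1 h; mesh cover; 25° C, 70% RH, 6 d; visual mortality; three replicates.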

Mythimna separata = assay: Insecticidal activity, spray on pre-infested radish plants: Mythimna separata; conditions: Mythimna separata, 144 h, read-out: fatality rate on Mythimna separata
How it was run: as §1

Spodoptera litura = assay: Insecticidal activity, spray on pre-infested radish plants: Spodoptera litura; conditions: 144 h, read-out: fatality rate on Spodoptera litura
How it was run: as §1

Chilo suppressalis = assay: Insecticidal activity, spray on pre-infested radish plants: Chilo suppressalis; conditions: Chilo suppressalis, 144 h, read-out: fatality rate on Chilo suppressalis
How it was run: as §1

Cnaphalocrocis medinalis = assay: Insecticidal activity, spray on pre-infested radish plants: Cnaphalocrocis medinalis; conditions: 144 h, read-out: fatality rate on Cnaphalocrocis medinalis
How it was run: as §2

Tetranychus cinnabarinus = assay: Acaricidal activity, slide immersion of female adult mites: Tetranychus cinnabarinus; conditions: read-out: fatality rate on Tetranychus cinnabarinus
How it was run: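 Female adult mites stuck dorsally on tape on slides (4 rows of 10), dipped 5 s in test solution, excess blotted, incubated 24 h. Mites with immobile feet on brush touch scored dead; fatality rate calculated.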

[2] = dose 1 ppm, immersion 5 seconds, checked after 24 hours
[3] = dose 10 ppm, immersion 5 seconds, checked after 24 hours
[4] = dose 25 ppm, immersion 5 seconds, checked after 24 hours

Cc1cc(C2=NOC(c3cc(Cl)c(F)c(Cl)c3)(C(F)(F)F)C2)ccc1C(=O)NCCc1ccc(Cl)nc1 (stereo not drawn) [Compound 15]
> 80%: pest or weed control at 1 ppm [1] | pest or weed control at 10 ppm [1] | pest or weed control at 25 ppm [1] | pest or weed control at 0.1 ppm (Plutella xylostella) | pest or weed control at 1 ppm (Plutella xylostella) | pest or weed control at 10 ppm (Plutella xylostella) | pest or weed control at 0.1 ppm (Pieris rapae) | pest or weed control at 1 ppm (Pieris rapae) | pest or weed control at 10 ppm (Pieris rapae) | pest or weed control at 0.1 ppm (Mythimna separata) | pest or weed control at 1 ppm (Mythimna separata) | pest or weed control at 10 ppm (Mythimna separata) | pest or weed control at 0.1 ppm (Spodoptera litura) | pest or weed control at 1 ppm (Spodoptera litura) | pest or weed control at 10 ppm (Spodoptera litura) | pest or weed control at 0.1 ppm (Chilo suppressalis) | pest or weed control at 1 ppm (Chilo suppressalis) | pest or weed control at 10 ppm (Chilo suppressalis) | pest or weed control at 0.1 ppm (Cnaphalocrocis medinalis) | pest or weed control at 1 ppm (Cnaphalocrocis medinalis) | pest or weed control at 10 ppm (Cnaphalocrocis medinalis) | pest or weed control at 1 ppm (Tetranychus cinnabarinus; 24 h) | pest or weed control at 10 ppm (Tetranychus cinnabarinus; 24 h) | pest or weed control at 25 ppm (Tetranychus cinnabarinus; 24 h)

Cc1cc(C2=NOC(c3cc(F)c(F)c(F)c3)(C(F)(F)F)C2)ccc1C(=O)NCCc1ccc(Cl)nc1 (stereo not drawn) [Compound 16]
> 80%: pest or weed control at 1 ppm ([1]; dose 1 ppm, spray, 6 days) | pest or weed control at 10 ppm ([1]; dose 10 ppm, spray, 6 days) | pest or weed control at 25 ppm ([1]; dose 25 ppm, spray, 6 days) | pest or weed control at 0.1 ppm (Plutella xylostella; dose 0.1 ppm, spray, 6 days) | pest or weed control at 1 ppm (Plutella xylostella; dose 1 ppm, spray, 6 days) | pest or weed control at 10 ppm (Plutella xylostella; dose 10 ppm, spray, 6 days) | pest or weed control at 0.1 ppm (Pieris rapae; dose 0.1 ppm, spray, 6 days) | pest or weed control at 1 ppm (Pieris rapae; dose 1 ppm, spray, 6 days) | pest or weed control at 10 ppm (Pieris rapae; dose 10 ppm, spray, 6 days) | pest or weed control at 0.1 ppm (Mythimna separata; dose 0.1 ppm, spray, 6 days) | pest or weed control at 1 ppm (Mythimna separata; dose 1 ppm, spray, 6 days) | pest or weed control at 10 ppm (Mythimna separata; dose 10 ppm, spray, 6 days) | pest or weed control at 0.1 ppm (Spodoptera litura; dose 0.1 ppm, spray, 6 days) | pest or weed control at 1 ppm (Spodoptera litura; dose 1 ppm, spray, 6 days) | pest or weed control at 10 ppm (Spodoptera litura; dose 10 ppm, spray, 6 days) | pest or weed control at 0.1 ppm (Chilo suppressalis; dose 0.1 ppm, spray, 6 days) | pest or weed control at 1 ppm (Chilo suppressalis; dose 1 ppm, spray, 6 days) | pest or weed control at 10 ppm (Chilo suppressalis; dose 10 ppm, spray, 6 days) | pest or weed control at 0.1 ppm (Cnaphalocrocis medinalis; dose 0.1 ppm, spray, 6 days) | pest or weed control at 1 ppm (Cnaphalocrocis medinalis; dose 1 ppm, spray, 6 days) | pest or weed control at 10 ppm (Cnaphalocrocis medinalis; dose 10 ppm, spray, 6 days) | pest or weed control at 1 ppm (Tetranychus cinnabarinus; [2]) | pest or weed control at 10 ppm (Tetranychus cinnabarinus; [3]) | pest or weed control at 25 ppm (Tetranychus cinnabarinus; [4])

Cc1cc(C2=NOC(c3cc(Cl)c(F)c(Cl)c3)(C(F)(F)F)C2)ccc1C(=O)NCCc1cnccc1C(F)(F)F (stereo not drawn) [Compound 17]
> 80%: pest or weed control at 1 ppm [1] | pest or weed control at 10 ppm [1] | pest or weed control at 25 ppm [1] | pest or weed control at 0.1 ppm (Plutella xylostella) | pest or weed control at 1 ppm (Plutella xylostella) | pest or weed control at 10 ppm (Plutella xylostella) | pest or weed control at 0.1 ppm (Pieris rapae) | pest or weed control at 1 ppm (Pieris rapae) | pest or weed control at 10 ppm (Pieris rapae) | pest or weed control at 0.1 ppm (Mythimna separata) | pest or weed control at 1 ppm (Mythimna separata) | pest or weed control at 10 ppm (Mythimna separata) | pest or weed control at 0.1 ppm (Spodoptera litura) | pest or weed control at 1 ppm (Spodoptera litura) | pest or weed control at 10 ppm (Spodoptera litura) | pest or weed control at 0.1 ppm (Chilo suppressalis) | pest or weed control at 1 ppm (Chilo suppressalis) | pest or weed control at 10 ppm (Chilo suppressalis) | pest or weed control at 0.1 ppm (Cnaphalocrocis medinalis) | pest or weed control at 1 ppm (Cnaphalocrocis medinalis) | pest or weed control at 10 ppm (Cnaphalocrocis medinalis) | pest or weed control at 1 ppm (Tetranychus cinnabarinus; 24 h) | pest or weed control at 10 ppm (Tetranychus cinnabarinus; 24 h) | pest or weed control at 25 ppm (Tetranychus cinnabarinus; 24 h)

Cc1cc(C2=NOC(c3cc(F)c(F)c(F)c3)(C(F)(F)F)C2)ccc1C(=O)NCCc1cnccc1C(F)(F)F (stereo not drawn) [Compound 18]
> 80%: pest or weed control at 1 ppm ([1]; dose 1 ppm, spray, 6 days) | pest or weed control at 10 ppm ([1]; dose 10 ppm, spray, 6 days) | pest or weed control at 25 ppm ([1]; dose 25 ppm, spray, 6 days) | pest or weed control at 0.1 ppm (Plutella xylostella; dose 0.1 ppm, spray, 6 days) | pest or weed control at 1 ppm (Plutella xylostella; dose 1 ppm, spray, 6 days) | pest or weed control at 10 ppm (Plutella xylostella; dose 10 ppm, spray, 6 days) | pest or weed control at 0.1 ppm (Pieris rapae; dose 0.1 ppm, spray, 6 days) | pest or weed control at 1 ppm (Pieris rapae; dose 1 ppm, spray, 6 days) | pest or weed control at 10 ppm (Pieris rapae; dose 10 ppm, spray, 6 days) | pest or weed control at 0.1 ppm (Mythimna separata; dose 0.1 ppm, spray, 6 days) | pest or weed control at 1 ppm (Mythimna separata; dose 1 ppm, spray, 6 days) | pest or weed control at 10 ppm (Mythimna separata; dose 10 ppm, spray, 6 days) | pest or weed control at 0.1 ppm (Spodoptera litura; dose 0.1 ppm, spray, 6 days) | pest or weed control at 1 ppm (Spodoptera litura; dose 1 ppm, spray, 6 days) | pest or weed control at 10 ppm (Spodoptera litura; dose 10 ppm, spray, 6 days) | pest or weed control at 0.1 ppm (Chilo suppressalis; dose 0.1 ppm, spray, 6 days) | pest or weed control at 1 ppm (Chilo suppressalis; dose 1 ppm, spray, 6 days) | pest or weed control at 10 ppm (Chilo suppressalis; dose 10 ppm, spray, 6 days) | pest or weed control at 0.1 ppm (Cnaphalocrocis medinalis; dose 0.1 ppm, spray, 6 days) | pest or weed control at 1 ppm (Cnaphalocrocis medinalis; dose 1 ppm, spray, 6 days) | pest or weed control at 10 ppm (Cnaphalocrocis medinalis; dose 10 ppm, spray, 6 days) | pest or weed control at 1 ppm (Tetranychus cinnabarinus; [2]) | pest or weed control at 10 ppm (Tetranychus cinnabarinus; [3]) | pest or weed control at 25 ppm (Tetranychus cinnabarinus; [4])

Cc1cc(C2=NOC(c3cc(Cl)c(F)c(Cl)c3)(C(F)(F)F)C2)ccc1C(=O)NCCc1ncc(C(F)(F)F)cc1Cl (stereo not drawn) [Compound 19]
> 80%: pest or weed control at 1 ppm [1] | pest or weed control at 10 ppm [1] | pest or weed control at 25 ppm [1] | pest or weed control at 0.1 ppm (Plutella xylostella) | pest or weed control at 1 ppm (Plutella xylostella) | pest or weed control at 10 ppm (Plutella xylostella) | pest or weed control at 0.1 ppm (Pieris rapae) | pest or weed control at 1 ppm (Pieris rapae) | pest or weed control at 10 ppm (Pieris rapae) | pest or weed control at 0.1 ppm (Mythimna separata) | pest or weed control at 1 ppm (Mythimna separata) | pest or weed control at 10 ppm (Mythimna separata) | pest or weed control at 0.1 ppm (Spodoptera litura) | pest or weed control at 1 ppm (Spodoptera litura) | pest or weed control at 10 ppm (Spodoptera litura) | pest or weed control at 0.1 ppm (Chilo suppressalis) | pest or weed control at 1 ppm (Chilo suppressalis) | pest or weed control at 10 ppm (Chilo suppressalis) | pest or weed control at 0.1 ppm (Cnaphalocrocis medinalis) | pest or weed control at 1 ppm (Cnaphalocrocis medinalis) | pest or weed control at 10 ppm (Cnaphalocrocis medinalis) | pest or weed control at 1 ppm (Tetranychus cinnabarinus; 24 h) | pest or weed control at 10 ppm (Tetranychus cinnabarinus; 24 h) | pest or weed control at 25 ppm (Tetranychus cinnabarinus; 24 h)

Cc1cc(C2=NOC(c3cc(F)c(F)c(F)c3)(C(F)(F)F)C2)ccc1C(=O)NCCc1ncc(C(F)(F)F)cc1Cl (stereo not drawn) [Compound 20]
> 80%: pest or weed control at 1 ppm ([1]; dose 1 ppm, spray, 6 days) | pest or weed control at 10 ppm ([1]; dose 10 ppm, spray, 6 days) | pest or weed control at 25 ppm ([1]; dose 25 ppm, spray, 6 days) | pest or weed control at 0.1 ppm (Plutella xylostella; dose 0.1 ppm, spray, 6 days) | pest or weed control at 1 ppm (Plutella xylostella; dose 1 ppm, spray, 6 days) | pest or weed control at 10 ppm (Plutella xylostella; dose 10 ppm, spray, 6 days) | pest or weed control at 0.1 ppm (Pieris rapae; dose 0.1 ppm, spray, 6 days) | pest or weed control at 1 ppm (Pieris rapae; dose 1 ppm, spray, 6 days) | pest or weed control at 10 ppm (Pieris rapae; dose 10 ppm, spray, 6 days) | pest or weed control at 0.1 ppm (Mythimna separata; dose 0.1 ppm, spray, 6 days) | pest or weed control at 1 ppm (Mythimna separata; dose 1 ppm, spray, 6 days) | pest or weed control at 10 ppm (Mythimna separata; dose 10 ppm, spray, 6 days) | pest or weed control at 0.1 ppm (Spodoptera litura; dose 0.1 ppm, spray, 6 days) | pest or weed control at 1 ppm (Spodoptera litura; dose 1 ppm, spray, 6 days) | pest or weed control at 10 ppm (Spodoptera litura; dose 10 ppm, spray, 6 days) | pest or weed control at 0.1 ppm (Chilo suppressalis; dose 0.1 ppm, spray, 6 days) | pest or weed control at 1 ppm (Chilo suppressalis; dose 1 ppm, spray, 6 days) | pest or weed control at 10 ppm (Chilo suppressalis; dose 10 ppm, spray, 6 days) | pest or weed control at 0.1 ppm (Cnaphalocrocis medinalis; dose 0.1 ppm, spray, 6 days) | pest or weed control at 1 ppm (Cnaphalocrocis medinalis; dose 1 ppm, spray, 6 days) | pest or weed control at 10 ppm (Cnaphalocrocis medinalis; dose 10 ppm, spray, 6 days) | pest or weed control at 1 ppm (Tetranychus cinnabarinus; [2]) | pest or weed control at 10 ppm (Tetranychus cinnabarinus; [3]) | pest or weed control at 25 ppm (Tetranychus cinnabarinus; [4])
